Source: US9352010B2, “Treatment of HIV-1 infection and AIDS” (The J. David Gladstone Institutes, priority 2011, dated 2016)

Legend:
CFSE-labeled CD4 T-cells = format: cell-based, human; details: NL4-3-infected effector cells
Description: (A) Experimental strategy to assess indirect cell killing in HIV-1-infected human lymphoid cultures. Fresh human tonsil tissue from a single donor is processed into HLAC, and then separated into two fractions. One fraction is challenged with HIV-1 and cultured for 6 days, allowing viral spread. On day 5, the uninfected fraction is treated with AZT (5 μM) and labeled with CFSE (1 μM). On day 6, the infected and CFSE-labeled (i.e., uninfected) cultures are mixed and co-cultured in the presence of AZT. […] After 6 days of co-culturing, the number of viable CFSE-positive cells is determined by flow cytometry. (B) Flow cytometry analysis of the mixed HLACs. Indirect killing is determined by gating on live CFSE-positive cells in the mixed cultures. Effector cells are either infected or uninfected cells. […] CFSE-labeled cells mixed with uninfected or infected cells were cultured in the presence of 5 μM AZT alone or together with 250 nM AMD3100. Data represent live CFSE-positive cells 6 days after co-culture with infected or uninfected effector cells. […] The absolute numbers of viable CFSE-positive CD4 and CD8 T-cells and B cells were determined. Percentages are normalized to the number of viable CFSE-positive cells co-cultured with uninfected cells in the presence of AZT, as depicted by (*). Error bars represent standard deviations of three samples from the same donor. […] See also FIG. 3.
Human tonsil or splenic tissues from routine tonsillectomies were obtained from the National Disease Research Interchange and the Cooperative Human Tissue Network and processed as previously described (Jekle et al., 2003, J Virol 77:5846-5854). In brief, tonsils or spleen were minced, passed through a 40-μm cell strainer, and cultured in 96-well U-bottomed polystyrene plates (2×10^6 cells/well) in medium (200 μl/well) consisting of RPMI 1640 supplemented with 15% heat-inactivated fetal bovine serum, 100 μg/ml gentamicin, 200 μg/ml ampicillin, 1 mM sodium pyruvate, 1% nonessential amino acids (Mediatech), 2 mM L-glutamine, and 1% fungizone (Invitrogen). All HIV-1 infections were carried out with 20-50 ng of HIV-1 p24^gag. Cells were incubated with the virus for 12-16 h, washed extensively, and supplemented with fresh medium. After day 5, infections were monitored by measuring p24gag levels in the culture medium using a FLAQ assay (Hayden et al., 2003, AIDS 17:629-631). Infected and uninfected cultures were manipulated as described for individual experiments. In “indirect killing” assays, unless otherwise stated, drugs were used at the following concentrations: 5 μM AZT; 250 nM AMD3100; 10 μg/ml T20; 100 nM Efavirenz; 1 μM Nevirapine; 30 μM Raltegravir; 60 μM 118-D-24; 5 μM Amprenavir; 5 μM Saquinavir; 5 μM Indinavir. CFSE-labeled cells were activated with PHA (5 μg/ml) and IL-2 (20 ng/ml) 2 days before mixing with effector cells.
Uninfected cells (5×10^6/ml) were labeled with 1 μM CFSE (Molecular Probes C1157), treated with 5 μM AZT for 24 h, and co-cultured with effector cells. CFSE readily diffuses into cells, where intracellular esterases cleave the acetate groups, converting it to a fluorescent, membrane-impermeable dye.

SupT1 cells = test: Virion-based fusion assay (BlaM-Vpr); format: cell-based; details: virions produced in the presence of amprenavir
Description: The virion-based fusion assay is performed in three successive steps: (1) incubation of target cells with virions, (2) loading of target cells with the CCF2/AM dye, and (3) development and detection of the BlaM reaction. SupT1 cells (5×10^5) were incubated with BlaM-Vpr containing virions (400 ng of p24^gag at 37° C. for 2 hours, washed in CO2-independent medium (GibCo BRL), and loaded with CCF2/AM dye as described by the manufacturer (Invitrogen). Briefly, 2 μl of CCF2/AM (1 mM) was mixed with 8 μl of 0.1% acetic acid containing 100 mg/ml Pluronic-F127R and 1 ml of DEEM to constitute the loading solution. Cells were incubated in 100 μl of loading solution for 1 hour at room temperature. After two washes with DEEM, the BlaM reaction was executed for 16 hours at room temperature in 200 μl of DMEM supplemented with 10% FBS and 2.5 mM probenecid, a nonspecific inhibitor of anion transport (Sigma Pharmaceuticals). Finally, the cells were washed once in DMEM and fixed in a 2% solution of paraformaldehyde. The change in emission fluorescence of CCF2 after cleavage by the BlaM-Vpr chimera was monitored by flow cytometry with LSR2 (Becton Dickinson, San Jose, Calif.). Data were collected with DiVa software and analyzed with FlowJo software (Treestar, San Carlos, Calif.).

[1] = system: SupT1 CD4 T leukemic cells; test: Syncytia formation in NL4-3-infected SupT1 cells; format: cell-based; details: 5 μM protease inhibitor, 2.5 days
Description: (A) The spinoculation procedure. (B) Flow cytometry of viable CD4 versus CD8-T-cells in HLAC three days after spinoculation in the presence of the indicated drugs. Data represent live-gated cells, based on the forward-scatter versus side-scatter profile of the complete culture. Of note, apoptotic cells were included in the analysis of caspases activity and cytokine expression (FIG. 10E, F). Drugs concentrations: AZT 5 μM; Efavirenz 100 nM; AMD3100 250 nM; T20 10 μg/ml. The data are representative results of six independent experiments with six different donors. […] (C) Highly permissive SupT1 CD4 T leukemic cells were infected with NL4-3 and cultivated for 3 days to allow substantial infection but not syncytia formation. […] After 2.5 days of additional culture, the extent of syncytia formation in each sample was evaluated by light microscopy. […] Results are representative of three independent experiments.

NL4-3 and TR712 virions = test: Viral maturation, immunoblot of viral lysates produced in 293T-cells; format: cell-based; details: NL4-3 and TR712 virions produced with amprenavir
Description: NL4-3 and TR712 viruses were generated in 293T-cells with or without amprenavir, lysed and subjected to SDS-PAGE immunoblotting analysis for gp120, p55 Gag, p24 CA, Blam-Vpr, and free Blam. […] SupT1 cells were mock infected or infected with mature or immature NL4-3 or TR712 virions containing Blam-Vpr. After loading of cells with CCF2 dye, fusion was analyzed by flow cytometry. Percentages are the fraction of cells displaying increased cleaved CCF2 fluorescence, indicating virion fusion.
The effect of protease inhibitors on viral maturation was assessed first. NL4-3 viruses carrying a β-lactamase-Vpr (BlaM-Vpr) reporter protein were produced in 293T-cells in the presence or absence of the HIV protease inhibitor amprenavir.

HLAC CD4 T-cells = test: HLAC cells overlaid on virus-producing 293T-cells, CD4 T-cell depletion; format: cell-based, human; details: TR712-transfected 293T-cells in the presence of amprenavir
Description: HLACs were infected with viruses derived from the indicated HIV proviral clones in the presence of the indicated concentrations of AZT or in the absence of drugs. Six days after infection the amount of p24^gag in the medium was determined by FLAQ assay. The amount of p24^gag in the medium after infection wash (day 0) was defined as 0%. […] Viral incorporation of endogenous A3G was measured by immunoblot analysis of purified NL4-3 and Δvif NL4-3 virions harvested from 1 ml of supernatant from infected HLACs. Doses reflect 1:10 dilutions. […] Resting or activated CFSE-labeled cells were co-cultured with cells infected with WT or Δvif NL4-3 in the presence or absence of the following drugs, AZT (5 μM), AMD3100 (250 nM), the NNRTIs Efavirenz (100 nM), and Nevirapine (1 μM), or the integration inhibitors Raltegravir (30 μM) and 118-D-24 (60 μM). Data are representative of four independent experiments performed with cells from four different donors. (E) A method to assess indirect killing in HLAC with non-infectious HIV-1 clones. Fresh human tonsil is processed into HLAC and cells are cultured in suspension. At the same time 293T-cells are transfected with 1 μg HIV-1 DNA in a 24-well plate. After 12 hours, 293T-cells are washed and overlayed with 3×10^6 HLAC cells in RPMI in the presence of the indicated drugs. Virus-producing 293T-cells directly interact with target overlaying HLAC cells. After 24 hours, the HLAC suspensions are collected from wells and analyzed by flow cytometry. […] HLAC were cultured with the indicated drugs 3 hours before co-culture with 293T-cells. Percentages are normalized to the number of viable CD4 T-cells in HLAC overlaying non-transfected 293T-cells in the presence of AZT, as depicted by (*). Error bars represent standard error of the mean of three experiments performed using cells from three different HLAC donors.

CC(C)CN(C[C@@H](O)[C@H](Cc1ccccc1)NC(=O)O[C@H]1CCOC1)S(=O)(=O)c1ccc(N)cc1 [Amprenavir]
indirect killing (loss) of resting CFSE-labeled CD4 T-cells (CFSE-labeled CD4 T-cells): inhibit indirect killing
decline in fusogenic properties of immature NL4-3 viruses (SupT1 cells): 90%
fusion capacity retained by immature TR712 (SupT1 cells): 40%
syncytia formation / cell-cell fusion [1]: do not block syncytia formation
Gag processing in virions (NL4-3 and TR712 virions): an uncleaved form of p55 Gag polypeptide rather than the mature p24 CA protein accumulated
CD4 T-cell killing by TR712 viruses (HLAC CD4 T-cells): prevented CD4 T-cell killing by TR712 viruses
